Numbered stars: 1 amine (or outer) side, 2 acyl side, 3 side chain; on linkers, the order of the positions; unused ones are H or OH. Square brackets hold non-standard residues; d marks the D form. Side chains are listed from the residue outwards. Peptide text beside a SMILES is read from it. * marks the point of attachment. C18 diacid = O=C(O)CCCCCCCCCCCCCCCCC(=O)*; γGlu = O=C(O)[C@H](CCC(=O)[*:2])N[*:1]; αMeL = CC(C)C[C@](C)(N)C(=O)O; AEEA = NCCOCCOCC(=O)O; Aib = CC(C)(N)C(=O)O
Tested on: CD8+ T cell depleted peripheral blood mononuclear cells
Procedure: The purpose of this study is to determine the relative potential for clinical immunogenicity of a compound.
CD8+ T cell depleted peripheral blood mononuclear cells are prepared and labeled with Carboxyfluorescein Diacetate Succinimidyl Ester (CFSE, Invitrogen) from a cohort of 10 healthy donors. […] Cultures are incubated for 7 days at 37° C. with 5% CO2. On day 7, samples are analyzed by flow cytometry using High Throughput Sampler (HTS). Data is analyzed using FlowJo® Software (FlowJo, LLC, TreeStar).

SMILES | frequency of positive CD+ T cell response (CDI>2.5)
CC[C@H](C)[C@H](NC(=O)[C@H](CC(C)C)NC(=O)[C@H](Cc1ccc(O)cc1)NC(=O)[C@H](CCC(=O)O)NC(=O)[C@@H](NC(=O)[C@H](Cc1ccccc1)NC(=O)[C@H](C)NC(=O)C(C)(C)NC(=O)[C@H](CCC(N)=O)NC(=O)[C@H](C)NC(=O)[C@H](CCCCNC(=O)COCCOCCNC(=O)COCCOCCNC(=O)CC[C@H](NC(=O)CCCCCCCCCCCCCCCCC(=O)O)C(=O)O)NC(=O)[C@H](CCC(=O)O)NC(=O)[C@H](CC(=O)O)NC(=O)[C@H](CC(C)C)NC(=O)[C@](C)(CC(C)C)NC(=O)[C@@H](NC(=O)[C@H](CO)NC(=O)[C@H](Cc1ccc(O)cc1)NC(=O)[C@H](CC(=O)O)NC(=O)[C@H](CO)NC(=O)[C@@H](NC(=O)[C@H](Cc1ccccc1)NC(=O)[C@@H](NC(=O)CNC(=O)[C@H](CCC(=O)O)NC(=O)C(C)(C)NC(=O)[C@@H](N)Cc1ccc(O)cc1)[C@@H](C)O)[C@@H](C)O)[C@@H](C)CC)[C@@H](C)CC)C(=O)N[C@@H](CCC(=O)O)C(=O)NCC(=O)NCC(=O)N1CCC[C@H]1C(=O)N[C@@H](CO)C(=O)N[C@@H](CO)C(=O)NCC(N)=O [Example 303] (H-Y[Aib]EGTFTSDYSI[αMeL]LDEK([AEEA-AEEA-γGlu-C18 diacid])AQ[Aib]AFIEYLIEGGPSSG-NH2) | low
CC[C@H](C)[C@H](NC(=O)[C@H](CC(C)C)NC(=O)[C@H](Cc1ccc(O)cc1)NC(=O)[C@H](CCC(=O)O)NC(=O)[C@@H](NC(=O)[C@H](Cc1ccccc1)NC(=O)[C@H](C)NC(=O)C(C)(C)NC(=O)[C@H](CCC(N)=O)NC(=O)[C@H](C)NC(=O)[C@H](CCCCNC(=O)COCCOCCNC(=O)COCCOCCNC(=O)CC[C@H](NC(=O)CCCCCCCCCCCCCCCCC(=O)O)C(=O)O)NC(=O)[C@H](CCCCN)NC(=O)[C@H](CC(=O)O)NC(=O)[C@H](CC(C)C)NC(=O)[C@H](CC(C)C)NC(=O)[C@@H](NC(=O)[C@H](CO)NC(=O)[C@H](Cc1ccc(O)cc1)NC(=O)[C@H](CC(=O)O)NC(=O)[C@H](CO)NC(=O)[C@@H](NC(=O)[C@H](Cc1ccccc1)NC(=O)[C@@H](NC(=O)CNC(=O)[C@H](CCC(=O)O)NC(=O)C(C)(C)NC(=O)[C@@H](N)Cc1ccc(O)cc1)[C@@H](C)O)[C@@H](C)O)[C@@H](C)CC)[C@@H](C)CC)C(=O)N[C@@H](C)C(=O)NCC(=O)NCC(=O)N1CCC[C@H]1C(=O)N[C@@H](CO)C(=O)N[C@@H](CO)C(=O)NCC(=O)N[C@@H](C)C(=O)N1CCC[C@H]1C(=O)N1CCC[C@H]1C(=O)N1CCC[C@H]1C(=O)N[C@@H](CO)C(N)=O [Example 316] (H-Y[Aib]EGTFTSDYSILLDKK([AEEA-AEEA-γGlu-C18 diacid])AQ[Aib]AFIEYLIAGGPSSGAPPPS-NH2) | low

Source: patent US12252524B2, “GIP/GLP1 co-agonist compounds” (Eli Lilly and Company, priority 2018, dated 2025)
